Read-outs that look alike come from different tables or passages of the source.
Columns and labels:
[1] = target: T1, RfaE (Escherichia coli, UniProt P76658); assay: RfaE luminescent assay (inhibition of the enzymatic activity of RfaE); format: biochemical, E.coli; settings: luminescent ATP detection; 3 nM RfaE, 0.2 µM β-heptose-7-phosphate, 0.2 µM ATP; 30 min pre-incubation
T1 construct: made in house; host or cells: E.coli
From the text: RfaE is a kinase sharing similarities with the ribokinases family. It catalyses an essential step of the biosynthesis of L-ADP-Heptose, namely the phosphorylation of β-heptose-7-phosphate (H7P) into β-heptose-1,7-bisphosphate (H1,7P). RfaE assays as described in the literature are essentially based on direct HLPC detection of the substrates H7P and ATP, and of the products H1,7P and ADP, raising obvious limitations for HTS applications. The assays described below are based either on luminescent ATP detection, or on fluorescent ADP detection. They are easily amenable to miniaturized formats and fast readouts as required by HTS.
The assay buffer "AB" contains 50 mM Hepes pH=7.5, 1 mM MnCl2, 25 mM KCI, 0.012% Triton-X100 and 1 mM DTT (Dithiothreitol). The following components are added in a white polystyrene Costar plate up to a final volume of 31 µL: 3 µL DMSO, or inhibitor dissolved in DMSO and 28 µL RfaE in AB. After 30min of pre-incubation at room temperature, 29 µL of Substrates mix in AB are added in each well to a final volume of 60 µL. This reaction mixture is then composed of 3 nM RfaE (produced in house from E.coli), 0.2 µM β -heptose-7-phosphate (in house synthesis) and 0.2 µM ATP (Sigma) in assay buffer. After 40min of incubation at room temperature, 200 µL of the revelation mix are added to a final volume of 260 µL, including the following constituents at the respective final concentrations: 2 nM luciferase (Sigma), 30 µM D-luciferin (Sigma), 100 µM N-acetylcysteamine (Aldrich). Luminescence intensity is immediately measured on an Analyst-HT (Molecular Devices) and converted into inhibition percentages.
For IC50 determinations, the inhibitor is tested at 6 to 10 different concentrations, and the related inhibitions are fitted to a classical langmuir equilibrium model using XLFIT (IDBS).

[2] = tested on: E. coli K12 AcrAB- TolC-; assay: Sensitization to complement killing assay (MIC with/without serum); format: cell-based; settings: Escherichia coli, 18-22H at 35°C
Method: The Gram-negative bacteria E. coli K12 AcrAB-/TolC- (K12 strain for which efflux pump components AcrA, AcrB and TolC have been deleted) is grown on Müller Hinton agar (MHA) overnight at 35°C. Five well isolated colonies from overnight agar growth are then added to 10 mL of cation adjusted Müller-Hinton Broth (MH2) and incubated at 35°C with constant shaking for two hours to reach the exponential phase. The suspension is then diluted to obtain an inoculum of 1.5E+04 CFU/mL. Viable counts are obtained by plating 10 to 1000-fold dilutions of the suspension on MHA. A solution of decomplemented Foetal Bovine Serum (dFBS) is prepared by heating normal FBS at 56°C for 30min. Compound dilutions are prepared in DMSO/water 20/80 in polypropylene plates. The following components are added on a polystyrene sterile culture plate in a final volume of 100µL: 5µL of compound in 20% DMSO, 30µL of FBS (30% final) or dFBS (30% final) or MH2 (0% FBS), 65µL of bacterial suspension at 1.5e4 CFU/mL (final inoculum of 1e4 CFU/mL). After 18-22H at 35°C incubation, the MIC of the compound in the presence of FBS 30%, dFBS 30% or FBS 0% is determined by visual inspection of bacterial pellets.

T1 sequence (P76658 whole entry): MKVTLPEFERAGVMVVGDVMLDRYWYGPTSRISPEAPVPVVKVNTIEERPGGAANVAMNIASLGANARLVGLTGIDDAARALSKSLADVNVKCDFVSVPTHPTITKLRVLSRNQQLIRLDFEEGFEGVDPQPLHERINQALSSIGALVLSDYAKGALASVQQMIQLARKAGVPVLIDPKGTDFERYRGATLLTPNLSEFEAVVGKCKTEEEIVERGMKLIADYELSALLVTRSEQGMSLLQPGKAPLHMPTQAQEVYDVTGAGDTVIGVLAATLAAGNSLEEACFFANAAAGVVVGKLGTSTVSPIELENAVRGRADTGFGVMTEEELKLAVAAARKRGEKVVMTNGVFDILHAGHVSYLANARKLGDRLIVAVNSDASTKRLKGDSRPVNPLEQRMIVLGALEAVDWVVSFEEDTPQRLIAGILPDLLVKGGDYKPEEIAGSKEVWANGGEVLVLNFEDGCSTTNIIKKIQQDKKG

Compound | IC50 [1] | also measured
Cc1nc(CNc2nncc(-c3ccccc3Cl)n2)sc1C [Example 9, 5-(2-Chlorophenyl)-N-[(4,5-dimethyl-1,3-thiazol-2-yl)methyl]-1,2,4-triazin-3-amine] | 4300 nM | 
COc1ccc2sc(CNc3nncc(-c4c(Cl)cccc4Cl)n3)nc2c1 [Example 15, 5-(2,6-Dichlorophenyl)-N-[(5-methoxy-1,3-benzothiazol-2-yl)methyl]-1,2,4-triazin-3-amine] | 130 nM | 
OCCOc1ccc2sc(CNc3nncc(-c4c(Cl)cccc4Cl)n3)nc2c1 [Example 16, 2-{[2-({[5-(2,6-Dichlorophenyl)-1,2,4-triazin-3-yl]amino}methyl)-1,3-benzothiazol-5-y]oxy}ethanol] | 18 nM | 
O=C(O)COc1ccc2sc(CNc3nncc(-c4c(Cl)cccc4Cl)n3)nc2c1 [Example 17, {[2-({[5-(2,6-dichlorophenyl)-1,2,4-triazin-3-yl]amino}methyl)-1,3-benzothiazol-5-yl]oxy}acetic acid] | 19 nM | 
O=C(COc1ccc2sc(CNc3nncc(-c4c(Cl)cccc4Cl)n3)nc2c1)NCCO [Example 18, 2-(2-{[5-(2,6-Dichloro-phenyl)-[1,2,4]triazin-3-ylamino]-methyl}-benzothiazol-5-yloxy)-N-(2-hydroxy-ethyl)-acetamide] | 47 nM | MIC ([2]; read-out: MIC for E. coli K12 AcrAB- TolC-, FBS=0 (MH2 broth only)): > 32 µg/mL; MIC ([2]; read-out: MIC for E. coli K12 AcrAB- TolC-, decomplemented FBS=30%): > 32 µg/mL; MIC ([2]; read-out: MIC for E. coli K12 AcrAB- TolC-, normal (complemented) FBS=30%): 4 µg/mL
CN(C)CCNC(=O)COc1ccc2sc(CNc3nncc(-c4c(Cl)cccc4Cl)n3)nc2c1 [Example 19, 2-(2-{[5-(2,6-Dichloro-phenyl)-[1,2,4]triazin-3-ylamino]-methyl}-benzothiazol-5-yloxy)-N-(2-dimethylamino-ethyl)-acetamide] | 165 nM | 
CC(=O)COc1ccc2sc(CNc3nncc(-c4c(Cl)cccc4Cl)n3)nc2c1 [Example 20, 1-{[2-({[5-(2,6-Dichlorophenyl)-1,2,4-triazin-3-yl]amino}methyl)-1,3-benzothiazol-5-yl]oxy}acetone] | 77 nM | 
NC(=O)COc1ccc2sc(CNc3nncc(-c4c(Cl)cccc4Cl)n3)nc2c1 [Example 21, 2-{[2-({[5-(2,6-Dichlorophenyl)-1,2,4-triazin-3-yl]amino}methyl)-1,3-benzothiazol-5-yl]oxy}acetamide] | 67 nM | 
COc1ccc2ccccc2c1-c1cnnc(NCc2nc3ccccc3s2)n1 [Example 22, Benzothiazol-2-ylmethyl-[5-(2-methoxy-naphthalen-1-yl)-[1,2,4]triazin-3-yl]-amine] | 130 nM | 
COc1ccc2sc(CNc3nncc(-c4c(OC)ccc5ccccc45)n3)nc2c1 [Example 29, N-[(5-Methoxy-1,3-benzothiazol-2-yl)methyl]-5(2-methoxy-1-naphthyl)-1,2,4-triazin-3-amine] | 51 nM | 
Oc1ccc2ccccc2c1-c1cnnc(NCc2nc3ccccc3s2)n1 [Example 32, 1-{3-[(Benzothiazol-2-ylmethyl)-amino]-[1,2,4]triazin-5-yl}-naphthalen-2-ol] | 63 nM | 
Oc1ccc2sc(CNc3nncc(-c4c(O)ccc5ccccc45)n3)nc2c1 [Example 33, 2-{[5-(2-Hydroxy-naphthalen-1-yl)-[1,2,4]triazin-3-ylamino]-methyl}-benzothiazol-5-ol] | 20 nM | 
COc1ccc2sc(CNc3nncc(-c4c(C)cccc4O)n3)nc2c1 [Example 35, 2-(3-{[(5-Methoxy-1,3-benzothiazol-2-yl)methyl]amino}-1,2,4-triazin-5-yl)-3-methylphenol] | 69 nM | 
Cc1cccc(O)c1-c1cnnc(NCc2nc3cc(NCc4nccs4)ccc3s2)n1 [Example 43, 3-Methyl-2-{3-[({5-[(1,3-thiazol-2-ylmethyl)amino]-1,3-benzothiazol-2-yl}methyl)amino]-1,2,4-triazin-5-yl}phenol] | 410 nM | 
COc1cccc(OC)c1-c1cnnc(NCc2nc3c(s2)CCCC3)n1 [Example 57, 5-(2,6-Dimethoxyphenyl)-N-(4,5,6,7-tetrahydro-1,3-benzothiazol-2-ylmethyl)-1,2,4-triazin-3-amine] | 1900 nM | 
Oc1cccc2sc(CNc3nncc(-c4ccccc4C(F)(F)F)n3)nc12 [Example 64, 2-[({5-[2-(Trifluoromethyl)phenyl]-1,2,4-triazin-3-yl}amino)methyl]-1,3-benzothiazol-4-ol] | 5600 nM | 
COc1cccc(C)c1-c1cnnc(NCc2nc3cccnc3s2)n1 [Example 70, 5-(2-Methoxy-6-methylphenyl)-N-([1,3]thiazolo[5,4-b]pyridin-2-ylmethyl)-1,2,4-triazin-3-amine] | 3100 nM | 
COc1ccc2sc(CNc3nncc(-c4c(C)cc(NC(=O)CN(C)C)cc4C)n3)nc2c1 [Example 75, 2-Dimethylamino-N-(4-{3-[(5-methoxy-benzothiazol-2-ylmethyl)-amino]-[1,2,4]triazin-5-yl}-3,5-dimethyl-phenyl)-acetamide] | 190 nM | 
COc1cccc(OC)c1-c1cnnc(N(CC(=O)O)Cc2nc3ccccc3s2)n1 [Example 90, {(1,3-Benzothiazol-2-ylmethyl)[5-(2,6-dimethoxyphenyl)-1,2,4-triazin-3-yl]amino}acetic acid] | 2000 nM | 
NCCSc1ccc2sc(CNc3nncc(-c4c(Cl)cccc4Cl)n3)nc2c1 [Example 94, N-({5-[(2-Aminoethyl)thio]-1,3-benzothiazol-2-yl}methyl)-5-(2,6-dichlorophenyl)-1,2,4-triazin-3-amine] | 250 nM | 
COc1ccc2sc(CNc3nncc(-c4cc(-c5ccn[nH]5)ccc4Cl)n3)nc2c1 [Example 97, 5-[2-Chloro-5-(1H-pyrazol-3-yl)phenyl]-N-[(5-methoxy-1,3-benzothiazol-2-yl)methyl]-1,2,4-triazin-3-amine] | 53 nM | 
COc1ccc2sc(CNc3nncc(-c4cc(-c5cn[nH]c5)ccc4Cl)n3)nc2c1 [Example 98, 5-[2-Chloro-5-(1H-pyrazol-4-yl)phenyl]-N-[(5-methoxy-1,3-benzothiazol-2-yl)methyl]-1,2,4-triazin-3-amine] | 49 nM | 
COc1ccc2sc(CNc3nncc(-c4cc(-c5cccnc5)ccc4Cl)n3)nc2c1 [Example 99, 5-(2-Chloro-5-pyridin-3-ylphenyl)-N-[(5-methoxy-1,3-benzothiazol-2-yl)methyl]-1,2,4-triazin-3-amine] | 150 nM | 
COc1ccc2sc(CNc3nncc(-c4cc(-c5cn(CCO)nn5)ccc4Cl)n3)nc2c1 [Example 100, 2-[4-(4-Chloro-3-{3-[(5-methoxy-benzothiazol-2-ylmethyl)-amino]-[1,2,4]triazin-5-yl}-phenyl)-[1,2,3]triazol-1-yl]-ethanol] | 255 nM | 
COc1ccc2sc(CNc3nncc(-c4ccc(N5CCNCC5)cc4Cl)n3)nc2c1 [Example 107, N-[(5-Methoxy-1,3-benzothiazol-2-yl)methyl]-5-(2-chloro-4-piperazin-1-ylphenyl)-1,2,4-triazin-3-amine] | 670 nM | 
Cc1cc(NCCN(C)C)cc(C)c1-c1cnnc(NCc2nc3cc(OCCN)ccc3s2)n1 [Example 108, N-[4-(3-{[5-(2-Amino-ethoxy)-benzothiazol-2-ylmethyl]-amino}-[1,2,4]triazin-5-yl)-3,5-dimethyl-phenyl]-N',N'-dimethyl-ethane-1,2-diamine] | 1400 nM | 

— EP2141164A1, “New 1,2,4-triazine derivatives and biological applications thereof” (priority 2008, dated 2010)
